Target: T1, human CCR2 (Homo sapiens, UniProt P41597)
T1 construct: expressed in transfected cells; host or cells: Ba/F3 cells (membrane preparation)
Assay: CCR2 Membrane Binding Assay (SPA radio-ligand binding, 125I-rhMCP-1)
Settings: membranes from Ba/F3 cells transfected with human CCR2, 0.03 nM 125I-rhMCP-1
Protocol: The radio-ligand binding assay was done using scintillation proximity assay (SPA) technology. Briefly, membranes (1 μg per assay point) from Ba/F3 cells transfected with human CCR2, and wheat germ agglutinin-coated SPA beads (80 μg per point; Amersham, Arlington Heights, Ill.), were pre-incubated for 30 min at room temperature in CCR2 buffer (50 mM HEPES (pH=7.4), 10 mM MgCl2, 10 mM NaCl, 1 mM CaCL2, 0.1% BSA, 10 μg/ml Saponin). At this point pre-bound SPA bead, membrane complex was incubated at room temperature for 4 h with varying concentrations of punitive CCR2 antagonists (in 1% DMSO, final) and 0.03 nM ^125I-rhMCP-1 in CCR2Buffer (S.A. 2200 Ci/mmol, PerkinElmer Life and Analytical Science, Boston, Mass.; NEX332). Binding competition was measured using a 1450 Microbeta Trilux counter (Wallac, Gaithersburg, Md.). Binding constants (IC50 and slope) were calculated using GraphPad Prism software (GraphPad Software, Inc., La Jolla Calif.).

T1 sequence (P41597 whole entry): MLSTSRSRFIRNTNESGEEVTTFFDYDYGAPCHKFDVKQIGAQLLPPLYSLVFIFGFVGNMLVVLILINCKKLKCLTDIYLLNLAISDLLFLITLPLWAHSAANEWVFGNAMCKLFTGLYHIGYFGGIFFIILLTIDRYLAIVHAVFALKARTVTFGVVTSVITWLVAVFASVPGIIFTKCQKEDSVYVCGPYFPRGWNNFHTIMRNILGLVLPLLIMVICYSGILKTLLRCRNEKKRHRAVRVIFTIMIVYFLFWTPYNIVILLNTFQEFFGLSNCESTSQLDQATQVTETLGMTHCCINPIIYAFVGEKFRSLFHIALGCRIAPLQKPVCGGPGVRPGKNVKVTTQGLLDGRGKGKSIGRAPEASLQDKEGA

IC50 (class symbols) [nM] | Compound | further results
201 to 700 | O=C(CNC(=O)[C@H]1[C@@H]2CN(C3CCC(O)CC3)C[C@@H]21)Nc1cccc(C(F)(F)F)c1 (stereo partly shown) [Compound 34] | –
< 50 | N#Cc1ccc([C@H]2CC[C@@H](N3C[C@@H]4[C@H](C3)[C@H]4C(=O)NCC(=O)Nc3cccc(C(F)(F)F)c3)CC2)cc1 [Compound 126] | –
< 50 | COc1ncc([C@H]2CC[C@@H](N3C[C@@H]4[C@H](C3)[C@H]4C(=O)NCC(=O)Nc3cccc(C(F)(F)F)c3)CC2)cn1 [Compound 133] | –
51 to 200 | O=C(CNC(=O)[C@H]1[C@@H]2CN(C3CC[C@H](c4ccccc4)C3)C[C@@H]21)Nc1cccc(C(F)(F)F)c1 (stereo partly shown) [Compound 64] | –
51 to 200 | O=C(NCc1cccc(C(F)(F)F)c1)[C@H]1[C@@H]2CN([C@H]3CC[C@@H](c4ccccc4)CC3)C[C@@H]21 [Compound 42] | –
201 to 700 | O=C(CNC(=O)[C@H]1[C@@H]2CN([C@H]3CC[C@H](c4ccncc4)CC3)C[C@@H]21)Nc1cccc(C(F)(F)F)c1 [Compound 85] | –
201 to 700 | O=C(CNC(=O)[C@H]1[C@@H]2CN([C@H]3CC[C@@H](C4Cc5ccccc5O4)CC3)C[C@@H]21)Nc1cccc(C(F)(F)F)c1 (stereo partly shown) [Compound 140] | –
51 to 200 | Cn1ccnc1C1CCC(N2C[C@@H]3[C@H](C2)[C@H]3C(=O)NCC(=O)Nc2cccc(C(F)(F)F)c2)CC1 (stereo partly shown) [Compound 95] | –
< 50 | O=C(CNC(=O)[C@H]1[C@@H]2CN([C@H]3CC[C@@H](c4cnn(Cc5ccccc5)c4)CC3)C[C@@H]21)Nc1cccc(C(F)(F)F)c1 [Compound 157] | –
201 to 700 | O=C(CNC(=O)[C@H]1[C@@H]2CN([C@H]3CC[C@H](Nc4ccc(F)c(F)c4)CC3)C[C@@H]21)Nc1cccc(C(F)(F)F)c1 [Compound 149] | –
51 to 200 | COc1ccc(C[C@H]2CC[C@@H](N3C[C@@H]4[C@H](C3)[C@H]4C(=O)NCC(=O)Nc3cccc(C(F)(F)F)c3)CC2)cc1 [Compound 145] | –
201 to 700 | O=C(CNC(=O)[C@H]1[C@@H]2CN([C@H]3CC[C@H](c4ccc(OCc5ccccc5)cc4)CC3)C[C@@H]21)Nc1cccc(C(F)(F)F)c1 [Compound 161] | –
201 to 700 | O=C(CNC(=O)[C@H]1[C@@H]2CN(C3CC(COCc4ccccc4)C3)C[C@@H]21)Nc1cccc(C(F)(F)F)c1 (stereo partly shown) [Compound 116] | –
201 to 700 | O=C(CNC(=O)[C@H]1[C@@H]2CN([C@H]3CC[C@H](c4ccccn4)CC3)C[C@@H]21)Nc1cccc(C(F)(F)F)c1 [Compound 84] | –
< 50 | O=C(NCCc1cccc(C(F)(F)F)c1)[C@H]1[C@@H]2CN([C@H]3CC[C@@H](c4ccccc4)CC3)C[C@@H]21 [Compound 48] | –
< 50 | O=C(CNC(=O)[C@H]1[C@@H]2CN([C@H]3CC[C@@H](NC(=O)c4ccccc4)CC3)C[C@@H]21)Nc1cccc(C(F)(F)F)c1 [Compound 141] | –
51 to 200 | O=C(CNC(=O)[C@H]1[C@@H]2CN([C@H]3CC[C@H](c4ccsc4)CC3)C[C@@H]21)Nc1cccc(C(F)(F)F)c1 [Compound 99] | –
< 50 | O=C(CNC(=O)[C@H]1[C@@H]2CN([C@H]3CC[C@@H](c4cccs4)CC3)C[C@@H]21)Nc1cccc(C(F)(F)F)c1 [Compound 98] | –

More lines, now with the values behind:

Compound | IC50 (class symbols) [nM] | further results
O=C(NC1CCc2ccc(F)cc2C1)[C@H]1[C@@H]2CN([C@H]3CC[C@@H](c4ccccc4)CC3)C[C@@H]21 (stereo partly shown) [Compound 36] | 201 to 700 | –
CC(C)N1C[C@@H]2[C@H](C1)[C@H]2C(=O)NCC(=O)Nc1cccc(C(F)(F)F)c1 [Compound 93] | 51 to 200 | –
CC1(C)CCCC(N2C[C@@H]3[C@H](C2)[C@H]3C(=O)NCC(=O)Nc2cccc(C(F)(F)F)c2)C1 (stereo partly shown) [Compound 38] | 201 to 700 | –
O=C(CNC(=O)[C@H]1[C@@H]2CN(C3CCC(O)(c4nccs4)CC3)C[C@@H]21)Nc1cccc(C(F)(F)F)c1 (stereo partly shown) [Compound 120] | – | IC50 (4 h room temperature): 3.9 nM
O=C(NCCc1cc(C(F)(F)F)cc(C(F)(F)F)c1)[C@H]1[C@@H]2CN([C@H]3CC[C@@H](c4ccccc4)CC3)C[C@@H]21 [Compound 135] | 201 to 700 | –
O=C(CNC(=O)[C@H]1[C@@H]2CN(C3CCCC3)C[C@@H]21)Nc1cccc(C(F)(F)F)c1 [Compound 11] | 51 to 200 | –
CC(=O)NC1CCC(N2C[C@@H]3[C@H](C2)[C@H]3C(=O)NCC(=O)Nc2cccc(C(F)(F)F)c2)CC1 (stereo partly shown) [Compound 55] | 201 to 700 | –
COc1ncc([C@H]2CC[C@@H](N3C[C@@H]4[C@H](C3)[C@H]4C(=O)NCC(=O)Nc3cccc(C(F)(F)F)c3)CC2)c(OC)n1 [Compound 153] | – | IC50 (4 h room temperature): 4.5 nM
O=C(CNC(=O)[C@H]1[C@@H]2CN([C@H]3CC[C@@H](NC(=O)OCc4ccccc4)CC3)C[C@@H]21)Nc1cccc(C(F)(F)F)c1 [Compound 154] | – | IC50 (4 h room temperature): 8.3 nM
O=C([C@H]1[C@@H]2CN([C@H]3CC[C@@H](c4ccccc4)CC3)C[C@@H]21)N1CCC(c2cccc(C(F)(F)F)c2)C1 (stereo partly shown) [Compound 70] | < 50 | –
O=C(CNC(=O)[C@H]1[C@@H]2CN(C3CC3)C[C@@H]21)Nc1cccc(C(F)(F)F)c1 [Compound 78] | 201 to 700 | –
O=C([C@H]1[C@@H]2CN([C@H]3CC[C@@H](c4ccccc4)CC3)C[C@@H]21)N1CC(Oc2ccccc2)C1 [Compound 25] | – | IC50 (nM) (class symbols): D (compounds with IC50 values between 701 nM and 110 nM are designated as D class compounds)
COC(=O)[C@H]1CC[C@H](N2C[C@@H]3[C@H](C2)[C@H]3C(=O)NCC(=O)Nc2cccc(C(F)(F)F)c2)CC1 [Compound 58] | 201 to 700 | –
O=C(CNC(=O)[C@H]1[C@@H]2CN([C@H]3CC[C@@H](c4ccccn4)CC3)C[C@@H]21)Nc1cccc(C(F)(F)F)c1 [Compound 81] | – | IC50 (4 h room temperature): 1.8 nM
CC1CCCC(N2C[C@@H]3[C@H](C2)[C@H]3C(=O)NCC(=O)Nc2cccc(C(F)(F)F)c2)C1 (stereo partly shown) [Compound 32] | 201 to 700 | –
CC(C)C1CCC(N2C[C@@H]3[C@H](C2)[C@H]3C(=O)NCC(=O)Nc2cccc(C(F)(F)F)c2)CC1 (stereo partly shown) [Compound 45] | 201 to 700 | –
O=C(CNC(=O)[C@H]1[C@@H]2CN([C@H]3CC[C@@H](c4ccc(-c5ccccc5)cc4)CC3)C[C@@H]21)Nc1cccc(C(F)(F)F)c1 [Compound 156] | – | IC50 (4 h room temperature): 7.4 nM

Compound | IC50 (class symbols) [nM] | further results
N#Cc1cccc(C2CCN(C(=O)[C@H]3[C@@H]4CN([C@H]5CC[C@@H](c6ccccc6)CC5)C[C@@H]43)C2)c1 (stereo partly shown) [Compound 40] | 51 to 200 | –
O=C(CNC(=O)[C@H]1[C@@H]2CN(C3CCCCCC3)C[C@@H]21)Nc1cccc(C(F)(F)F)c1 [Compound 33] | 201 to 700 | –
O=C([C@H]1[C@@H]2CN([C@H]3CC[C@@H](c4ccccc4)CC3)C[C@@H]21)N1CCC(c2cccc(C(F)(F)F)c2)CC1 [Compound 106] | – | IC50 (nM) (class symbols): D (compounds with IC50 values between 701 nM and 110 nM are designated as D class compounds)
CC1CCC(N2C[C@@H]3[C@H](C2)[C@H]3C(=O)NCC(=O)Nc2cccc(C(F)(F)F)c2)C1 (stereo partly shown) [Compound 19] | 201 to 700 | –
O=C([C@H]1[C@@H]2CN([C@H]3CC[C@@H](c4ccccc4)CC3)C[C@@H]21)N1CCN(c2cccc(C(F)(F)F)c2)CC1 [Compound 108] | 201 to 700 | –
CCC(C)N1C[C@@H]2[C@H](C1)[C@H]2C(=O)NCC(=O)Nc1cccc(C(F)(F)F)c1 (stereo partly shown) [Compound 9] | 51 to 200 | –
O=C(CNC(=O)[C@H]1[C@@H]2CN(C3CC=C(c4ccc5c(c4)OCO5)CC3)C[C@@H]21)Nc1cccc(C(F)(F)F)c1 (stereo partly shown) [Compound 139] | 201 to 700 | –
COC1CCC(N2C[C@@H]3[C@H](C2)[C@H]3C(=O)NCC(=O)Nc2cccc(C(F)(F)F)c2)CC1 (stereo partly shown) [Compound 39] | – | IC50 (nM) (class symbols): D (compounds with IC50 values between 701 nM and 110 nM are designated as D class compounds)
CCC(CC)N1C[C@@H]2[C@H](C1)[C@H]2C(=O)NCC(=O)Nc1cccc(C(F)(F)F)c1 [Compound 13] | 51 to 200 | –
O=C([C@H]1[C@@H]2CN([C@H]3CC[C@@H](c4ccccc4)CC3)C[C@@H]21)N1CCC(c2cccc(C(F)(F)F)c2)C1 (stereo partly shown) [Compound 71] | < 50 | –
O=C([C@H]1[C@@H]2CN([C@H]3CC[C@@H](c4ccccc4)CC3)C[C@@H]21)N1CCN(c2cccc(C(F)(F)F)c2)C(=O)C1 [Compound 127] | – | IC50 (nM) (class symbols): D (compounds with IC50 values between 701 nM and 110 nM are designated as D class compounds)
CC1CCCCC1N1C[C@@H]2[C@H](C1)[C@H]2C(=O)NCC(=O)Nc1cccc(C(F)(F)F)c1 (stereo partly shown) [Compound 31] | 51 to 200 | –
O=C([C@H]1[C@@H]2CN([C@H]3CC[C@@H](c4ccccc4)CC3)C[C@@H]21)N1CCC(c2ccc(C(F)(F)F)cc2)C1 (stereo partly shown) [Compound 73] | 51 to 200 | –
O=C(CNC(=O)[C@H]1[C@@H]2CN([C@H]3CC[C@@H](c4ccc(F)cc4)CC3)C[C@@H]21)Nc1cccc(C(F)(F)F)c1 [Compound 119] | – | IC50 (4 h room temperature): 6.1 nM
CC(C)(C)OC(=O)N[C@H]1CC[C@@H](N2C[C@@H]3[C@H](C2)[C@H]3C(=O)NCC(=O)Nc2cccc(C(F)(F)F)c2)CC1 [Compound 136] | 51 to 200 | –
O=C([C@H]1[C@@H]2CN([C@H]3CC[C@@H](c4ccccc4)CC3)C[C@@H]21)N1CCc2ncc(C(F)(F)F)cc2C1 [Compound 61] | 201 to 700 | –
COc1ccc([C@H]2CC[C@@H](N3C[C@@H]4[C@H](C3)[C@H]4C(=O)NCC(=O)Nc3cccc(C(F)(F)F)c3)CC2)cn1 [Compound 132] | – | IC50 (4 h room temperature): 3.4 nM
